# Legend:
# [1] = test system: metalloproteinase activity of C. atrox, C. adamanteus and C. horridus venom; assay: In vitro snake venom metalloproteinase assay, North American rattlesnake venoms; type: biochemical, Crotalus atrox, Crotalus adamanteus, Crotalus horridus; settings: 25 μM drug, 1 μg venom, range across the three rattlesnake venoms
# Text: FIG. 6. […] Error bars represent standard deviation.
# The remaining assay protocol with respects to fluorogenic substrate preparation, plate-read settings and data processing was the same as described above.
# These species were selected for their clinical importance in the USA, namely: 1) Crotalus atrox (Western diamondback), which is found across the southwest USA and into Mexico and is thought to be the most common cause of snakebite envenoming in USA, 2) Crotalus horridus (Timber rattlesnake), which is found across Eastern and central USA, and is categorised as a Group I medically important snake by the World Health Organization. Furthermore, this species is not included in the immunising mixture of the current FDA-approved CroFab antivenom. 3) Crotalus adamanteus (Eastern diamondback), which is another Group I medically important snake, found in the South-East USA.
# Echis ocellatus venom [2] = assay: Murine 'challenge then treat' model of envenoming, intraperitoneal; type: in vivo, CD-1 mice
# Protocol: FIG. 18. […] Kaplan-Meier survival graphs for experimental animals (n=5) that received E. ocellatus venom (intraperitoneal administration of 90 μg; 5×iv. LD50), followed by delayed drug treatment intraperitoneally 15 mins later. […] For the DMPS and antivenom (D+AV) group, experimental animals received 120 μg of DMPS 15 mins after venom, and intravenous antivenom (168 μl of the E. ocellatus monospecific antivenom EchiTAbG, MicroPharm Ltd, UK) 1 hr after venom delivery. All DMPS data presented is taken from Albulescu et al. “Preclinical validation of a repurposed metal chelator as an early-intervention therapeutic for hemotoxic snakebite. Sci. Trans. Med. 12, eaay8314 (2020)”).
# To better mimic a snakebite scenario, mice were initially challenged with venom, followed by the delayed administration of a single drug or a combination of drugs, as previously described. The venom challenge dose was increased to ensure complete lethality in the venom-only control group occurred within 4-5 hours. Groups of five male 18-22 g CD-1 mice (Charles River, UK) were injected with venom (100 μl final volume), followed by a drug dose that was scaled up accordingly after 15 min. […] Experimental animals were monitored for 24 h, with humane end points for euthanasia, and data recording, performed as described above. […]
# [3] = Tolerability of oral DMPS; type: in vivo
# Echis ocellatus venom [4] = settings: previous work, same preclinical model; cited from earlier work
# [5] = test system: Echis ocellatus venom metalloproteinase activity; assay: In vitro snake venom metalloproteinase assay (quenched fluorogenic substrate), drug screen; type: biochemical; settings: 10 μM drug, control drug
# Protocol: FIG. 1. Inhibition of Echis ocellatus venom metalloproteinase activity by known matrix metalloproteinase inhibitors (MMPi) and rationally selected drugs based on their target site interactions. One microgram of whole venom per reaction was incubated with 10 μM of drug (dissolved in DMSO). Predicted metalloproteinase inhibitors were based on descriptors from a MedChemExpress commercial library and the literature. […] The percentage metalloproteinase activity was calculated from an endpoint read taken 45 minutes after substrate addition. The phospholipase inhibitor varespladib was included as a non-metalloproteinase inhibiting drug control.
# The snake venom metalloproteinase activity in the presence of inhibitors or vehicle control (DMSO), was measured using a quenched fluorogenic substrate (ES010, R&D Biosystems). […] The substrate was suspended in reaction buffer (150 mM NaCl, 50 mM Tris-HCl pH 7.5). Reactions consisted of 1 μg/reaction of venom (1 μg in 15 μl PBS) co-incubated with 0.91 μl of 1 mM of inhibitor, both added using the VIAFLO 384 (Integra). […] Strong hits were determined as those with less than 20% metalloproteinase activity of the venom and mediocre hits between 20 and 50%. […]
# [6] = Water solubility when preparing stocks; type: physicochemical
Structure (SMILES),inhibition of metalloproteinase activity [1],"survival (Echis ocellatus venom [2]; 90 μg venom i.p. (5×i.v. LD50), 120 μg of each drug i.p. 15 min later, 24 h monitoring, n=5)","adverse effects in drug-only controls (Echis ocellatus venom [2]; drug only, i.p., 24 hour monitoring)",oral dose that is well tolerated and safe [3],time for which lethality was prevented (Echis ocellatus venom [4]) [h],inhibitory effect against venom metalloproteinase activity [5],water solubility [6]
"O=S(=O)(O)CC(S)CS (centres unmarked) [DMPS, 2,3-dimercapto-1-propanesulfonic acid]",88.6-97.8%,only two of the five experimental animals survived,None of the animals receiving DMPS alone displayed any adverse effects,"up to 1,500 mg",~8,,
CNC(=O)[C@@H](NC(=O)[C@H](CC(C)C)[C@H](O)C(=O)NO)C(C)(C)C [marimastat],90.9-99.1%,,,,,,
CCc1c(C(=O)C(N)=O)c2c(OCC(=O)O)cccc2n1Cc1ccccc1 [varespladib],,,,,,no inhibitory effect,water insolubility
